Source: the NIST ThermoML archive (doi:10.1021/acs.jced.6b00606)

What was measured:
[1] = xn = mol fraction of the nth substance listed; settings: 100 kPa, Liquid; for speed of sound: Frequency=3 MHz, Sing-around technique in a fixed-path interferometer; for mass density: Vibrating tube method
[2] = excess molar enthalpy (molar enthalpy of mixing); xn = mol fraction of the nth substance listed; settings: 308.15 K, Liquid, Calvet calorimetry

O=C1CCCCCC1 [cycloheptanone] + C1CCOCC1
Settings	excess molar enthalpy, 1e-07 kPa [kJ/mol]	mass density, 293.15 K [kg/m3]	mass density, 298.15 K [kg/m3]	mass density, 303.15 K [kg/m3]	mass density, 308.15 K [kg/m3]	speed of sound, 293.15 K [m/s]	speed of sound, 298.15 K [m/s]	speed of sound, 303.15 K [m/s]	speed of sound, 308.15 K [m/s]
[1], x2 = 0.0845	–	948.05	943.9	939.65	935.43	1457.2	1435	1411.9	1389.1
[1], x2 = 0.1276	–	946.02	941.88	937.63	933.42	1447.3	1424.9	1401.8	1378.9
[1], x2 = 0.1794	–	943.48	939.35	935.11	930.88	1435.5	1413	1389.8	1366.9
[1], x2 = 0.2172	–	941.57	937.43	933.19	928.95	1427.2	1404.5	1381.3	1358.4
[1], x2 = 0.254	–	939.66	935.51	931.26	927.02	1419.2	1396.5	1373.2	1350.2
[1], x2 = 0.3098	–	936.64	932.46	928.23	923.95	1407.4	1384.5	1361.1	1338.2
[1], x2 = 0.341	–	934.9	930.72	926.47	922.18	1400.9	1378	1354.6	1331.6
[1], x2 = 0.3982	–	931.59	927.36	923.12	918.8	1389.4	1366.4	1342.9	1319.9
[1], x2 = 0.4407	–	929.02	924.78	920.53	916.18	1381.2	1358	1334.6	1311.6
[1], x2 = 0.4986	–	925.38	921.12	916.82	912.46	1370.2	1346.9	1323.6	1300.6
[1], x2 = 0.5312	–	923.24	918.96	914.66	910.27	1364.3	1340.9	1317.5	1294.6
[1], x2 = 0.5779	–	920.07	915.78	911.43	907.03	1355.9	1332.6	1309.2	1286.3
[1], x2 = 0.6295	–	916.42	912.11	907.7	903.26	1347.1	1323.7	1300.3	1277.4
[1], x2 = 0.6717	–	913.29	908.95	904.49	900.02	1340.1	1316.6	1293.3	1270.5
[1], x2 = 0.7229	–	909.34	904.97	900.41	895.9	1331.9	1308.4	1285.2	1262.4
[1], x2 = 0.7686	–	905.66	901.22	896.58	892.03	1324.8	1301.4	1278.2	1255.4
[1], x2 = 0.8202	–	901.28	896.77	892.03	887.39	1317.2	1293.7	1270.6	1247.9
[1], x2 = 0.8742	–	896.48	891.84	886.98	882.23	1309.5	1286.1	1263	1240.4
[2], x2 = 0.0898	0.0549	–	–	–	–	–	–	–	–
[2], x2 = 0.1356	0.0749	–	–	–	–	–	–	–	–
[2], x2 = 0.1846	0.0896	–	–	–	–	–	–	–	–
[2], x2 = 0.2366	0.104	–	–	–	–	–	–	–	–
[2], x2 = 0.2882	0.114	–	–	–	–	–	–	–	–
[2], x2 = 0.3312	0.119	–	–	–	–	–	–	–	–
[2], x2 = 0.3942	0.123	–	–	–	–	–	–	–	–
[2], x2 = 0.4412	0.125	–	–	–	–	–	–	–	–
[2], x2 = 0.4895	0.124	–	–	–	–	–	–	–	–
[2], x2 = 0.5326	0.123	–	–	–	–	–	–	–	–
[2], x2 = 0.5842	0.12	–	–	–	–	–	–	–	–
[2], x2 = 0.6335	0.116	–	–	–	–	–	–	–	–
[2], x2 = 0.6875	0.109	–	–	–	–	–	–	–	–
[2], x2 = 0.7289	0.102	–	–	–	–	–	–	–	–
[2], x2 = 0.7789	0.092	–	–	–	–	–	–	–	–
[2], x2 = 0.8278	0.0774	–	–	–	–	–	–	–	–
[2], x2 = 0.8799	0.0612	–	–	–	–	–	–	–	–
[2], x2 = 0.9199	0.0434	–	–	–	–	–	–	–	–

O=C1CCCCCC1 [cycloheptanone] + C1COCCO1
Settings	excess molar enthalpy, 100 kPa [kJ/mol]	mass density, 293.15 K [kg/m3]	mass density, 298.15 K [kg/m3]	mass density, 303.15 K [kg/m3]	mass density, 308.15 K [kg/m3]	speed of sound, 293.15 K [m/s]	speed of sound, 298.15 K [m/s]	speed of sound, 303.15 K [m/s]	speed of sound, 308.15 K [m/s]
[1], x2 = 0.0954	–	957.02	952.54	948.07	943.61	1466.3	1444.4	1422.1	1399.7
[1], x2 = 0.1589	–	960.61	956.03	951.46	946.89	1459.2	1437.4	1415.3	1393
[1], x2 = 0.2184	–	964.09	959.46	954.81	950.18	1452.6	1430.9	1408.9	1386.7
[1], x2 = 0.2555	–	966.35	961.68	956.99	952.32	1448.6	1426.9	1404.9	1382.8
[1], x2 = 0.3019	–	969.25	964.56	959.82	955.1	1443.6	1421.9	1400	1377.9
[1], x2 = 0.3487	–	972.3	967.57	962.78	958.02	1438.6	1416.9	1395.1	1373
[1], x2 = 0.3814	–	974.5	969.75	964.92	960.13	1435.1	1413.4	1391.6	1369.6
[1], x2 = 0.4324	–	978.07	973.27	968.38	963.54	1429.7	1408	1386.3	1364.3
[1], x2 = 0.4879	–	982.15	977.29	972.33	967.42	1423.8	1402.2	1380.5	1358.5
[1], x2 = 0.5219	–	984.76	979.85	974.85	969.89	1420.3	1398.7	1377	1355
[1], x2 = 0.5723	–	988.81	983.82	978.74	973.7	1415	1393.4	1371.8	1349.9
[1], x2 = 0.6149	–	992.39	987.32	982.17	977.06	1410.5	1388.9	1367.4	1345.5
[1], x2 = 0.6687	–	997.15	991.96	986.73	981.52	1404.8	1383.3	1361.7	1339.9
[1], x2 = 0.7104	–	1001	995.75	990.44	985.15	1400.4	1378.9	1357.4	1335.6
[1], x2 = 0.7489	–	1004.7	999.41	994.03	988.66	1396.3	1374.7	1353.3	1331.5
[1], x2 = 0.7919	–	1009.2	1003.7	998.23	992.77	1391.6	1370.1	1348.6	1326.9
[1], x2 = 0.8475	–	1015.1	1009.5	1004	998.45	1385.4	1363.9	1342.5	1320.7
[1], x2 = 0.9018	–	1021.3	1015.6	1010.1	1004.4	1379.3	1357.8	1336.3	1314.5
[2], x2 = 0.0726	0.0304	–	–	–	–	–	–	–	–
[2], x2 = 0.1258	0.0496	–	–	–	–	–	–	–	–
[2], x2 = 0.1769	0.0643	–	–	–	–	–	–	–	–
[2], x2 = 0.2252	0.0783	–	–	–	–	–	–	–	–
[2], x2 = 0.2786	0.0891	–	–	–	–	–	–	–	–
[2], x2 = 0.3286	0.0979	–	–	–	–	–	–	–	–
[2], x2 = 0.3746	0.103	–	–	–	–	–	–	–	–
[2], x2 = 0.4282	0.107	–	–	–	–	–	–	–	–
[2], x2 = 0.4712	0.108	–	–	–	–	–	–	–	–
[2], x2 = 0.5232	0.106	–	–	–	–	–	–	–	–
[2], x2 = 0.5725	0.103	–	–	–	–	–	–	–	–
[2], x2 = 0.6235	0.0975	–	–	–	–	–	–	–	–
[2], x2 = 0.6762	0.0889	–	–	–	–	–	–	–	–
[2], x2 = 0.7256	0.0799	–	–	–	–	–	–	–	–
[2], x2 = 0.7716	0.0694	–	–	–	–	–	–	–	–
[2], x2 = 0.8125	0.0589	–	–	–	–	–	–	–	–
[2], x2 = 0.8682	0.0423	–	–	–	–	–	–	–	–
[2], x2 = 0.9129	0.0293	–	–	–	–	–	–	–	–
